Tests used:
[1] = Cytotoxicity against human HCT116 cells after 48 hrs by MTT assay; type: functional, cell-based; settings: HCT-116, 48 h
[2] = Cytotoxicity against human DLD1 cells after 48 hrs by MTT assay; type: functional, cell-based; settings: DLD-1, 48 h
MDA-MB-231 = test: Cytotoxicity against human MDA-MB-231 cells after 48 hrs by MTT assay; type: functional, cell-based; settings: MDA-MB-231, 48 h
HUVEC = test: Cytotoxicity against HUVEC cells after 48 hrs by MTT assay; type: cell-based; settings: Homo sapiens

Structure (SMILES)	IC50 [1]	IC50 [2]	IC50 (MDA-MB-231)	IC50 (HUVEC)
Nc1nc(-c2ccccc2)cn1/N=C/c1cc2ccccc2nc1Cl	6.92 µM	16.4 µM	49 µM	46.7 µM
Cc1ccc(-c2cn(/N=C/c3cc4ccccc4nc3Cl)c(N)n2)cc1	> 50 µM	> 50 µM	> 50 µM	> 50 µM
COc1ccc(-c2cn(/N=C/c3cc4ccccc4nc3Cl)c(N)n2)cc1	31.8 µM	> 50 µM	> 50 µM	12.4 µM
Nc1nc(-c2ccc(Cl)cc2)cn1/N=C/c1cc2ccccc2nc1Cl	> 50 µM	> 50 µM	> 50 µM	28 µM
Nc1nc(-c2ccc(Br)cc2)cn1/N=C/c1cc2ccccc2nc1Cl	> 50 µM	23.9 µM	> 50 µM	11.9 µM
Cc1ccc2nc(Cl)c(/C=N/n3cc(-c4ccccc4)nc3N)cc2c1	7.12 µM	8.79 µM	48.1 µM	41.5 µM
Cc1ccc(-c2cn(/N=C/c3cc4cc(C)ccc4nc3Cl)c(N)n2)cc1	39.6 µM	25.2 µM	22.3 µM	18 µM
COc1ccc(-c2cn(/N=C/c3cc4cc(C)ccc4nc3Cl)c(N)n2)cc1	> 50 µM	25.7 µM	23.6 µM	12.2 µM
Cc1ccc2nc(Cl)c(/C=N/n3cc(-c4ccc(Cl)cc4)nc3N)cc2c1	> 50 µM	38.9 µM	35.2 µM	38.5 µM
Cc1ccc2nc(Cl)c(/C=N/n3cc(-c4ccc(Br)cc4)nc3N)cc2c1	49.9 µM	39.3 µM	38.2 µM	13.4 µM
Nc1nc(-c2cccc3ccccc23)cn1/N=C/c1cc2ccccc2nc1Cl	6.34 µM	9.48 µM	> 50 µM	> 50 µM
Nc1nc(-c2ccc3ccccc3c2)cn1/N=C/c1cc2ccccc2nc1Cl	> 50 µM	> 50 µM	> 50 µM	36.2 µM
Cc1ccc2nc(Cl)c(/C=N/n3cc(-c4cccc5ccccc45)nc3N)cc2c1	5.84 µM	8.3 µM	> 50 µM	9.58 µM
Cc1ccc2nc(Cl)c(/C=N/n3cc(-c4ccc5ccccc5c4)nc3N)cc2c1	27.4 µM	10.2 µM	35.6 µM	11.3 µM
Nc1nc(-c2cccs2)cn1/N=C/c1cc2ccccc2nc1Cl	7.22 µM	10.3 µM	> 50 µM	10.2 µM
Cc1ccc2nc(Cl)c(/C=N/n3cc(-c4cccs4)nc3N)cc2c1	7.71 µM	8.99 µM	> 50 µM	38 µM
COc1cccc2c1C(=O)c1c(O)c3c(c(O)c1C2=O)C[C@@](O)(C(=O)CO)C[C@@H]3O[C@H]1C[C@H](N)[C@H](O)[C@H](C)O1 [DOXORUBICIN]	0.34 µM	0.84 µM	1.47 µM	–

Source: ChEMBL document CHEMBL3351640, “Design, regioselective synthesis and cytotoxic evaluation of 2-aminoimidazole-quinoline hybrids against cancer and primary endothelial cells” (Eur J Med Chem, 2014)
